Publication PMC5513037, “Examining the influence of specificity ligands and ATP-competitive ligands on the overall effectiveness of bivalent kinase inhibitors” (Proteome Science, 2017)

How the values were obtained:
Assay in all cases: KAM-matrix competition in K562 lysate;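 as to 0.001 uM KAM: median log10 fold change of treatment over DMSO control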;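 as to 0.01 uM KAM: median log10 fold change of treatment over DMSO control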;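 as to 0.1 uM KAM: median log10 fold change of treatment over DMSO control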;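 as to 1 uM KAM: median log10 fold change of treatment over DMSO control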;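 as to 10 uM KAM: median log10 fold change of treatment over DMSO control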
Format in all cases: binding
MAP4K2 = target: T1, MAP4K2 (Homo sapiens, UniProt Q12851)
T1 construct: endogenous in cells; host or cells: K562
T1 sequence (Q12851 1-820): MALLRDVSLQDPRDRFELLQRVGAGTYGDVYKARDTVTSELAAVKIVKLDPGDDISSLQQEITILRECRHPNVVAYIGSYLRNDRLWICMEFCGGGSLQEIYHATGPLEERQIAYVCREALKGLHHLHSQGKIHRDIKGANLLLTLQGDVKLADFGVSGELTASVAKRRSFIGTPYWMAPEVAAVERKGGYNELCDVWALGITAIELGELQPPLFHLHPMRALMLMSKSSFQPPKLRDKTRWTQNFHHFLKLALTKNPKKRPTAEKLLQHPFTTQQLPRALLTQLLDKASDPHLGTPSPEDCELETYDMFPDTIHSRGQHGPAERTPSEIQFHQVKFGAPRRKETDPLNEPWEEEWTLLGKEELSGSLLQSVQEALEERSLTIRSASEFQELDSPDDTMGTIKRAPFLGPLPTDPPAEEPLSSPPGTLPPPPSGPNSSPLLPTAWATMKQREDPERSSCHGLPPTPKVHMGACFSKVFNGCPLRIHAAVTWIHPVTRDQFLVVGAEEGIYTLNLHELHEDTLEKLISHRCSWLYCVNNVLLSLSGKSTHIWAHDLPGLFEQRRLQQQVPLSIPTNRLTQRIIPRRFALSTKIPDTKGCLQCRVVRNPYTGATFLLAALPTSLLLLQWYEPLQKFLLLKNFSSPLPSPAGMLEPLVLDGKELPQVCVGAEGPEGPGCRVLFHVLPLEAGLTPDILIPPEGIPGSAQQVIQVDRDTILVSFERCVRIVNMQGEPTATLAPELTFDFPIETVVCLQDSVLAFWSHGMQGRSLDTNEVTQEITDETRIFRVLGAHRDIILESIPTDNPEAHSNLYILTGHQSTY
Experimental: (§1) Supplement 12953_2017_125_MOESM1_ESM.zip/MS_Supp Info.xlsx, sheet "KAM" | column: 10 uM KAM; 1 uM KAM; 0.1 uM KAM; 0.01 uM KAM; 0.001 uM KAM; RB50

PRPF4B = target: T2, PRPF4B (Homo sapiens, UniProt Q13523)
T2 construct: endogenous in cells; host or cells: K562
T2 sequence (Q13523 whole entry): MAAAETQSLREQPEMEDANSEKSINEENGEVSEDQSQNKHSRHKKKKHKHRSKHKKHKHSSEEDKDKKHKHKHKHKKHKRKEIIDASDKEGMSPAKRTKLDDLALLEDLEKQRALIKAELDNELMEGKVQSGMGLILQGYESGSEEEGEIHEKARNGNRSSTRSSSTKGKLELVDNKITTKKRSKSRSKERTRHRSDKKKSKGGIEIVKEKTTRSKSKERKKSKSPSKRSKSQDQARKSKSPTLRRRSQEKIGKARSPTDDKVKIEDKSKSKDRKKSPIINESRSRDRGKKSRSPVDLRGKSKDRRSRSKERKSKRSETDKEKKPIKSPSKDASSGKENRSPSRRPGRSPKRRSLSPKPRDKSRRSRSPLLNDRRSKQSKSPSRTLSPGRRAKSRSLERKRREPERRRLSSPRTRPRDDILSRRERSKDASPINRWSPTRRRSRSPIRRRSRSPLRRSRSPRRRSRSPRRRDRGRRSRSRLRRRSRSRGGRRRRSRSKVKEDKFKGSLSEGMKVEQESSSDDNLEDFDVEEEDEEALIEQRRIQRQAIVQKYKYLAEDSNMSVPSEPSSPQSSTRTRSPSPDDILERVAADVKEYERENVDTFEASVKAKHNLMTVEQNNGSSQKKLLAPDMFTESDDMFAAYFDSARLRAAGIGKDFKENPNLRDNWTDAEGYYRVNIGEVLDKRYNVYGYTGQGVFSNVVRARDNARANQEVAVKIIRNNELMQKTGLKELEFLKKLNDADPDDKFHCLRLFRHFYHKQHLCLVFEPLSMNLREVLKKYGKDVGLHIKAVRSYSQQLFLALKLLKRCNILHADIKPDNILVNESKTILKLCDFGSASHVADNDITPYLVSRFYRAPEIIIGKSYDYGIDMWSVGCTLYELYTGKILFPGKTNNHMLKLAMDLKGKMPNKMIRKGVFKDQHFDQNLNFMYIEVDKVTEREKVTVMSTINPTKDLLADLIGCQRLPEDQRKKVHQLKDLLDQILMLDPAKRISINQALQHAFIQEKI
Experimental: as §1

ULK2 = target: T3, ULK2 (Homo sapiens, UniProt Q8IYT8);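 as to 0.001 uM KAM: median log10 fold change of treatment over DMSO control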;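 as to 0.01 uM KAM: median log10 fold change of treatment over DMSO control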;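 as to 0.1 uM KAM: median log10 fold change of treatment over DMSO control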;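 as to 1 uM KAM: median log10 fold change of treatment over DMSO control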;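 as to 10 uM KAM: median log10 fold change of treatment over DMSO control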
T3 construct: endogenous in cells; host or cells: K562
T3 sequence (Q8IYT8 1-1036): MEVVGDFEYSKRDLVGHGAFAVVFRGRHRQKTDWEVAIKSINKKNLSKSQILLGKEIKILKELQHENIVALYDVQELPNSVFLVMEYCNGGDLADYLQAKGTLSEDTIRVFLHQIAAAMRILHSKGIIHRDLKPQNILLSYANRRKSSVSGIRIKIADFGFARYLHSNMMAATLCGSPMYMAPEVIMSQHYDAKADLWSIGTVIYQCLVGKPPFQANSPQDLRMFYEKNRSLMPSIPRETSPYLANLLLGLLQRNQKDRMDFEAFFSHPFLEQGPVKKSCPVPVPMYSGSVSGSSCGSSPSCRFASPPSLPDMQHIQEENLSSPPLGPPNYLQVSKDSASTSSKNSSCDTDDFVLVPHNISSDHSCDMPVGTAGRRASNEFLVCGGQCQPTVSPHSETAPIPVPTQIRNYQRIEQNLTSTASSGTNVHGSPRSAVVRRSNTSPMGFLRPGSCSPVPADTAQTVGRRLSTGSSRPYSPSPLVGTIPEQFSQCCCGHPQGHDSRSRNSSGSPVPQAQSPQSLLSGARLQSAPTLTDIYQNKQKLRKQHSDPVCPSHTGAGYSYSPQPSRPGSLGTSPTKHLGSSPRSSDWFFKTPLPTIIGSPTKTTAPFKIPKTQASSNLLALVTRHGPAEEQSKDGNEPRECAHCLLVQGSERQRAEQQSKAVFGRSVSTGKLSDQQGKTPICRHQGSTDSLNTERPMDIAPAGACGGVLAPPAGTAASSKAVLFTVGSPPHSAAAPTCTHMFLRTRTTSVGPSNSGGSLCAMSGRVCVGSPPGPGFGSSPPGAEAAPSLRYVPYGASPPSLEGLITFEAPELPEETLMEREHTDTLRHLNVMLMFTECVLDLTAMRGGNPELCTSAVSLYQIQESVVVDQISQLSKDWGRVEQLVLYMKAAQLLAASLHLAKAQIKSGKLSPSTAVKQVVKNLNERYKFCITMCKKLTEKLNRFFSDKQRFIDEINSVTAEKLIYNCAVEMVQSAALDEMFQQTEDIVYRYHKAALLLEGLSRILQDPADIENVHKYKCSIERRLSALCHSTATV
Experimental: as §1

ACVR1B = target: T4, ACVR1B (Homo sapiens, UniProt P36896)
T4 construct: endogenous in cells; host or cells: K562
T4 sequence (P36896 24-505): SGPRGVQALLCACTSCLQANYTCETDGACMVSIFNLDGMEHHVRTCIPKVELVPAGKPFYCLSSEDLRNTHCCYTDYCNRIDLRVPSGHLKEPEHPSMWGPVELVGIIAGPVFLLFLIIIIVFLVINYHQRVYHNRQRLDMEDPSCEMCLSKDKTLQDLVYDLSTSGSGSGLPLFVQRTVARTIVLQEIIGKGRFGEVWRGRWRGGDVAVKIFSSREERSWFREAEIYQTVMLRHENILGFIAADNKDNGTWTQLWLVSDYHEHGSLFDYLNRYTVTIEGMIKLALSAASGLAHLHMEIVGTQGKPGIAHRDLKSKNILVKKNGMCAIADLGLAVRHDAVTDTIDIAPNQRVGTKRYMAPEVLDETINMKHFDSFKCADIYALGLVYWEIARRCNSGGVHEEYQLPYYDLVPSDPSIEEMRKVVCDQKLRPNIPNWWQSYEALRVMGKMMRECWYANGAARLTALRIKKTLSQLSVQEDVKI
Experimental: as §1

MAP3K9 = target: T5, MAP3K9 (Homo sapiens, UniProt P80192)
T5 construct: endogenous in cells; host or cells: K562
T5 sequence (P80192 whole entry): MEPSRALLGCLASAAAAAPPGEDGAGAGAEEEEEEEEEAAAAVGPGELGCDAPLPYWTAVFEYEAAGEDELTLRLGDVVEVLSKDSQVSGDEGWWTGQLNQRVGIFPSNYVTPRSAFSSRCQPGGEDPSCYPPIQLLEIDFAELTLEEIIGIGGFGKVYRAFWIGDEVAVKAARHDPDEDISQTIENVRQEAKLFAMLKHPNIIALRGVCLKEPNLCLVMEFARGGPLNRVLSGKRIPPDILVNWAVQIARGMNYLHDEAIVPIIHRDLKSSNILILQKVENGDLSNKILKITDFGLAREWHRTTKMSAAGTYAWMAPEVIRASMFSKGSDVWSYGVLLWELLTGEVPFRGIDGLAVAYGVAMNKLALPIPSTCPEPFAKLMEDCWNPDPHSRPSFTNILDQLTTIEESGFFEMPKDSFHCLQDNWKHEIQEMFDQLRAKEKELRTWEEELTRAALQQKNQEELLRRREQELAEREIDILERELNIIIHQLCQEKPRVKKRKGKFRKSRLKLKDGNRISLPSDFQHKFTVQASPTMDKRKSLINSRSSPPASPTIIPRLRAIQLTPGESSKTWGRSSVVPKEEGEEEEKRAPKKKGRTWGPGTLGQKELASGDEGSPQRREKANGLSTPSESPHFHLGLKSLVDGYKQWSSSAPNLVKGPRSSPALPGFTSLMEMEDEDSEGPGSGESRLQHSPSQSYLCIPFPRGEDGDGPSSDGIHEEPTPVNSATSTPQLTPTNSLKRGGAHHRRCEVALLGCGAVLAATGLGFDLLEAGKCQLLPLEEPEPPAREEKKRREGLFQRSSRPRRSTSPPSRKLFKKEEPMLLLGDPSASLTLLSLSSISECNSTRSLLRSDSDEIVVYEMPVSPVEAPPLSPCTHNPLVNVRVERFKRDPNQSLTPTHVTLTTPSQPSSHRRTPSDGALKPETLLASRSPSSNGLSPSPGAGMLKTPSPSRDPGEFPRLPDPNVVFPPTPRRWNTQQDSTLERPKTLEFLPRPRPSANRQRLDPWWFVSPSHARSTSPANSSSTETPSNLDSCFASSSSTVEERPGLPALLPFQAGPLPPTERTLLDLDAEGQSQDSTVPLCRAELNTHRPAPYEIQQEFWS
Experimental: as §1

[1] = read-out: RB50 (the source's name)

N#CCc1ccc(Nc2nc(NCCCN)cc(Nc3cc(C4CC4)[nH]n3)n2)cc1 [KAM]
median Log10 fold change (MAP4K2; 0.001 uM KAM): -0.01936 | median Log10 fold change (MAP4K2; 0.01 uM KAM): -0.0303 | median Log10 fold change (MAP4K2; 0.1 uM KAM): -0.2006 | median Log10 fold change (MAP4K2; 1 uM KAM): -0.2485 | median Log10 fold change (MAP4K2; 10 uM KAM): -0.341 | IC50 (MAP4K2; [1]): 2230 nM | median Log10 fold change (PRPF4B; 0.001 uM KAM): -0.03755 | median Log10 fold change (PRPF4B; 0.01 uM KAM): -0.07792 | median Log10 fold change (PRPF4B; 0.1 uM KAM): -0.1894 | median Log10 fold change (PRPF4B; 1 uM KAM): -0.2633 | median Log10 fold change (PRPF4B; 10 uM KAM): -0.4136 | IC50 (PRPF4B; [1]): 1400 nM | IC50 (ULK2; KAM 0.001-10 uM, read-out: RB50 (the source's name)): > 10000 nM | 0.001 uM KAM (ULK2; relative to 0 uM KAM = 0): -0.004094 | 0.01 uM KAM (ULK2; relative to 0 uM KAM = 0): -0.0009308 | 0.1 uM KAM (ULK2; relative to 0 uM KAM = 0): 0.03838 | 1 uM KAM (ULK2; relative to 0 uM KAM = 0): 0.1564 | 10 uM KAM (ULK2; relative to 0 uM KAM = 0): 0.04645 | median Log10 fold change (ACVR1B; 0.001 uM KAM): -0.01715 | median Log10 fold change (ACVR1B; 0.01 uM KAM): -0.04575 | median Log10 fold change (ACVR1B; 0.1 uM KAM): -0.2439 | median Log10 fold change (ACVR1B; 1 uM KAM): -0.5931 | median Log10 fold change (ACVR1B; 10 uM KAM): -0.7717 | IC50 (ACVR1B; [1]): 169 nM | median Log10 fold change (MAP3K9; 0.001 uM KAM): -0.03702 | median Log10 fold change (MAP3K9; 0.01 uM KAM): 0.03625 | median Log10 fold change (MAP3K9; 0.1 uM KAM): -0.05744 | median Log10 fold change (MAP3K9; 1 uM KAM): -0.2576 | median Log10 fold change (MAP3K9; 10 uM KAM): -0.4734 | IC50 (MAP3K9; [1]): 1800 nM
